Results reported in publication PMC5109658, “Antibacterial and cytotoxic cytochalasins from the endophytic fungus Phomopsis sp. harbored in Garcinia kola (Heckel) nut” (BMC Complementary and Alternative Medicine, 2016).
≈ marks a conversion by molar mass, not a printed value. Like-named read-outs stand apart in the source and are kept apart here.

Tests used:
[1] = test system: HeLa cells; test: MTT cytotoxicity assay; type: cell-based, Human; conditions: SI = LC50 on Vero cells / LC50 on HeLa cells
Description: (§1) HeLa (Human cervical cancer cell line, ATCC No. CCL-2) and Vero cells (African green monkey kidney cells, normal non-cancer cells, ATCC No. CCL-81), obtained from the American Type Culture Collection (ATCC) were used in this study. Cytotoxic activity was determined using the 3-(4,5-dimethylthiazol-2-yl)-2,5-diphenyltetrazolium bromide (MTT, Sigma, USA) assay reported by Mosmann for the HeLa and Vero cells. This cell viability assay is based on living cell‘s property to transform the MTT dye tetrazolium ring into a purple-colored formazan structure due to the action of mitochondrial and other dehydrogenases inside the cell. The color intensity yielded by the cell population is directly proportional to the number of viable cells, and one can quantify the absorbance measurements using mathematical parameters. Each test sample was dissolved in dimethylsulfoxide (DMSO) to give a stock solution. Compounds 1–3 were prepared from the stock solutions by serial dilution in RPMI 1640 to give a volume of 100 μL in each well of a microtiter plate (96-well). Each well was filled with 100 μL of cells at 2 × 10^5 cells/mL. The assay for each concentration of compound was performed in triplicates and the culture plates were kept at 37 °C with 5% (v/v) CO2 for 24 h. After removing the supernatant of each well and washing twice by PBS, 20 μL of MTT solution (5 mg/mL in PBS) and 100 μL of medium were then introduced. After 4 h of incubation, 100 μL of DMSO were added to each well to dissolve the formazan crystals and the absorbance values at 490 nm were measured with a microplate reader (Bio-RAD 680, USA). The relative cell viability (%) was expressed as a relative percentage of treated cells to the untreated control cells (TC/UC × 100). The rate of cell inhibition was calculated using the following formula: inhibition rate = [1- (ODtest/ODnegative control)] × 100%. The LC50 values were calculated as the concentration of test sample resulting in a 50% reduction of absorbance compared to untreated cells. Cells treated with 5-fluorouridine + RPMI 1640 served as positive control while cells left untreated + 1% (v/v) DMSO + RPMI 1640 were used as negative control.

[2] = MTT cytotoxicity assay; type: cell-based, Human; conditions: human, HeLa cells; MTT, 24 h, mean ± SD; read-out: Cytotoxicty (LC50) HeLa cells
Description: as §1

[3] = MTT cytotoxicity assay; type: cell-based; conditions: African green monkey, Vero cells, normal non-cancer cells, mean ± SD, read-out: Cytotoxicty (LC50) Vero cells
Description: as §1

[4] = test system: S. flexneri SDINT; test: Broth microdilution MIC/MBC; type: cell-based, Shigella flexneri; conditions: for MBC/MIC / MBC / MIC: S. flexneri SDINT; for MBC / MIC: Shigella flexneri; for MBC: 99.9% reduction in CFU after 24 h; for MIC: 24 h at 37 °C, read-out: MIC
Description: (§2) A total of six bacterial strains were tested for their susceptibility to compounds and these strains were taken from our laboratory collection (kindly provided by Dr. T. Ramamurthy, NICED, Kolkata). Among the clinical strains of Vibrio cholerae used in this study, strains NB2 and SG24 and CO6 belonged to O1 and O139 serotypes, respectively. […]. The other strains used in this study were V. cholerae non-O1, non-O139 (strain PC2); […]. The American Type Culture Collection (ATCC) strain, Staphylococcus aureus ATCC 25923, was used for quality control. The bacterial strains were maintained on agar slant at 4 °C and subcultured on a fresh appropriate agar plates 24 h prior to any antibacterial test. The Mueller Hinton Agar (MHA) was used for the activation of bacteria. The Mueller Hinton Broth (MHB) and nutrient agar (Hi-Media) were used for the MIC and MBC determinations respectively.
(§3) Suspensions of bacteria were prepared in MHB from cells arrested during their logarithmic phase growth (4 h) on MHB at 37 °C. The turbidity of the microbial suspension was read spectrophotometrically at 600 nm and adjusted to an OD of 0.1 with MHB, which is equivalent to 1 × 10^8 CFU/mL. From this prepared solution, other dilutions were made with MHB to yield 1x10^6 CFU/mL.
(§4) MIC and MBC of compounds 1–3 were assessed using the broth microdilution method recommended by the National Committee for Clinical Laboratory Standards with slight modifications. Each test sample was dissolved in dimethylsulfoxide (DMSO) to give a stock solution. The 96-well round bottom sterile plates were prepared by dispensing 180 μL of the inoculated broth (1x10^6 CFU/mL) into each well. A 20 μL aliquot of the stock solution of compound was added. The concentrations of sample tested were 0.125, 0.25, 0.50, 1, 2, 4, 8, 16, 32, 64, 128, 256 and 512 μg/mL. […] Dilutions of tetracycline and ampicillin served as positive controls, while broth with 20 μL of DMSO was used as negative control. The ATCC strain Staphylococcus aureus ATCC 25923 was included for quality assurance purposes. Plates were covered and incubated for 24 h at 37 °C. After incubation, minimum inhibitory concentrations (MIC) were read visually; all wells were plated to nutrient agar (Hi-Media) and incubated. The minimal bactericidal concentration (MBC) was defined as a 99.9% reduction in CFU from the starting inoculums after 24 h incubation interval.

[5] = test system: V. cholerae CO6; test: Broth microdilution MIC/MBC; type: cell-based, Vibrio cholerae; conditions: for MBC/MIC / MBC / MIC: V. cholerae CO6; for MBC / MIC: Vibrio cholerae; for MBC: 99.9% reduction in CFU after 24 h; for MIC: 24 h at 37 °C
Description: as §2, §3, §4

[6] = test system: V. cholerae NB2; test: Broth microdilution MIC/MBC; type: cell-based, Vibrio cholerae; conditions: for MBC/MIC / MBC / MIC: V. cholerae NB2; for MBC / MIC: Vibrio cholerae; for MBC: 99.9% reduction in CFU after 24 h; for MIC: 24 h at 37 °C, read-out: MIC
Description: as §2, §3, §4

[7] = test system: V. cholerae SG24; test: Broth microdilution MIC/MBC; type: cell-based, Vibrio cholerae; conditions: for MBC / MIC: Vibrio cholerae; for MBC: 99.9% reduction in CFU after 24 h; for MIC: 24 h at 37 °C
Description: as §2, §3, §4

[8] = test system: V. cholerae PC2; test: Broth microdilution MIC/MBC; type: cell-based, Vibrio cholerae; conditions: V. cholerae PC2; for MBC / MIC: Vibrio cholerae; for MBC: 99.9% reduction in CFU after 24 h; for MIC: 24 h at 37 °C, read-out: MIC
Description: as §2, §3, §4

[9] = test system: studied microorganisms (six bacterial strains); test: Antibacterial spectrum over the six tested strains (broth microdilution); type: cell-based; conditions: out of 6 strains; concentrations up to 512 μg/mL
Description: as §2, §4

[10] = test system: S. aureus ATCC 25923; test: Broth microdilution MIC/MBC; type: cell-based, Staphylococcus aureus; conditions: for MBC/MIC / MBC / MIC: S. aureus ATCC 25923; for MBC / MIC: Staphylococcus aureus, ATCC25923; for MBC: 99.9% reduction in CFU after 24 h; for MIC: 24 h at 37 °C
Description: as §2, §3, §4

[11] = Hemolytic assay; type: cell-based; conditions: male, 1% human red blood cell suspension, 512 μg/mL (highest concentration tested), 1% human red blood cells, PBS pH 7.4, 37 °C
Description: Whole blood (10 mL) from a healthy person was collected into a conical tube containing heparin as an anticoagulant. Erythrocytes were harvested by centrifugation at room temperature for 10 min at 1,000 × g and were washed three times in PBS solution. The top layer (plasma) and the next, milky layer (buffy coat with a layer of platelets on top of it) were then carefully aspirated and discarded. The cell pellet was resuspended in 10 mL of PBS solution and mixed by gentle aspiration with a Pasteur pipette. This cell suspension was used immediately.
For the normal human red blood cells, which were in suspension, the cytotoxicity was evaluated as previously described. Compounds 1–3, at concentrations ranging from 32 to 512 μg/mL, were incubated with an equal volume of 1% human red blood cells in phosphate buffered saline (10 mM PBS, pH 7.4) at 37 °C for 1 h. Tetracycline was tested simultaneously. Non-hemolytic and 100% hemolytic controls were the buffer alone and the buffer containing 1% Triton X-100, respectively. Cell lysis was monitored by measuring the release of hemoglobin at 595 nm with a spectrophotometer (Thermo Scientific, USA). Percent hemolysis was calculated as follows: [(A595 of sample treated with compound - A595 of sample treated with buffer)/(A595 of sample treated with Triton X-100 – A595 of sample treated with buffer)] x 100.

O=c1[nH]c(=O)n([C@@H]2O[C@H](CO)[C@@H](O)[C@H]2O)cc1F [Compound 5-FU, 5-Fluorouridine, reference compound]
Selectivity Index HeLa cells [1]: 18.52
CC50 at 24 h [2]: 0.25 ± 0.05 µg/mL (≈ 0.953 µM)
CC50 at 24 h [3]: 4.63 ± 0.17 µg/mL (≈ 17.7 µM)

C=C1[C@@H](C)C2[C@H](Cc3ccccc3)NC(=O)[C@]23[C@H](O)/C=C/[C@](C)(OC)C[C@@H](C)C/C=C/[C@@H]3[C@@H]1O (some centres unmarked) [Compound 1, 18-metoxycytochalasin J]
Selectivity Index HeLa cells [1]: 11.37
CC50 at 24 h [2]: 8.18 ± 0.92 µg/mL (≈ 17.6 µM)
CC50 at 24 h [3]: 93 ± 2.54 µg/mL (≈ 200 µM)
MBC/MIC [4]: 1
Selectivity Index S. flexneri SDINT ([4]; SI = LC50 on Vero cells / MIC): 0.72
MBC [4]: 128 µg/mL (≈ 275 µM)
MIC [4]: 128 µg/mL (≈ 275 µM)
Selectivity Index V. cholerae CO6 ([5]; SI = LC50 on Vero cells / MIC): 0.18
MBC/MIC [5]: 1
MBC [5]: 512 µg/mL (≈ 1100 µM)
MIC [5]: 512 µg/mL (≈ 1100 µM)
Selectivity Index V. cholerae NB2 ([6]; SI = LC50 on Vero cells / MIC): 0.18
MBC/MIC [6]: 1
MBC [6]: 512 µg/mL (≈ 1100 µM)
MIC [6]: 512 µg/mL (≈ 1100 µM)
MBC [7]: > 512 µg/mL
MIC [7]: > 512 µg/mL
MBC [8]: > 512 µg/mL
MIC [8]: > 512 µg/mL
share of the studied microorganisms on which inhibitory effects were noted [9]: 66.66%
MBC/MIC [10]: 1
Selectivity Index S. aureus ATCC 25923 ([10]; SI = LC50 on Vero cells / MIC): 0.72
MBC [10]: 128 µg/mL (≈ 275 µM)
MIC [10]: 128 µg/mL (≈ 275 µM)
hemolysis at 1 h, 512 μg/mL [11]: < 10%

CN(C)[C@@H]1C(O)=C(C(N)=O)C(=O)[C@@]2(O)C(O)=C3C(=O)c4c(O)cccc4[C@@](C)(O)[C@H]3C[C@@H]12 [Tetracycline, reference compound]
MBC/MIC [4]: 2
MBC [4]: 32 µg/mL (≈ 72 µM)
MIC [4]: 16 µg/mL (≈ 36 µM)
MBC/MIC [5]: 4
MBC [5]: 8 µg/mL (≈ 18 µM)
MIC [5]: 2 µg/mL (≈ 4.5 µM)
MBC/MIC [6]: 4
MBC [6]: 2 µg/mL (≈ 4.5 µM)
MIC [6]: 0.5 µg/mL (≈ 1.13 µM)
MBC/MIC [7]: 2
MBC [7]: 1 µg/mL (≈ 2.25 µM)
MIC [7]: 0.5 µg/mL (≈ 1.13 µM)
MBC/MIC [8]: 2
MBC [8]: 1 µg/mL (≈ 2.25 µM)
MIC [8]: 0.5 µg/mL (≈ 1.13 µM)
MBC/MIC [10]: 2
MBC [10]: 32 µg/mL (≈ 72 µM)
MIC [10]: 16 µg/mL (≈ 36 µM)
hemolysis at 1 h, 512 μg/mL [11]: < 10%
